Values of other authors in patent US7186882B2, “Transgenic mouse over-expressing calreticulin (CRT) in vascular smooth muscle cells” (priority 2003, dated 2007).
Where a SMILES comes first, the peptide text is derived from it. Bridges are numbered along the chain shown (N, C = ends).

B1: CRT: calreticulin, 46 kDa ER protein, exogenously added to vascular cells or vessel lumen (protein)
chain: MLLPVPLLLGLLGLAAAEPVVYFKEQFLDGDGWTERWIESKHKSDFGKFVLSSGKFYGDQEKDKGLQTSQDARFYALSARFEPFSNKGQPLVVQFTVKHEQNIDCGGGYVKLFPAGLDQKDMHGDSEYNIMFGPDICGPGTKKVHVIFNYKGKNVLINKDIRCKDDEFTHLYTLIVRPDNTYEVKIDNSQVESGSLEDDWDFLPPKKIKDPDASKPEDWDERAKIDDPTDSKPEDWDKPEHIPDPDAKKPEDWDEEMDGEWEPPVIQNPEYKGEWKPRQIDNPDYKGTWIHPEIDNPEYSPDANIYAYDSFAVLGLDLWQVKSGTIFDNFLITNDEAYAEEFGNETWGVTKTAEKQMKDKQDEEQRLKEEEEEKKRKEEEEAEEDEEDKDDKEDEDEDEEDKDEEEEEAAAGQAKDEL
modifications: CRT peptide sequence from CRT cDNA
notes: calreticulin, 46 kDa ER protein, exogenously added to vascular cells or vessel lumen

How the values were obtained:
MMP-2/MMP-9 = MMP-2/MMP-9 inhibitor, values given as illustrative
CRT = settings: siRNA to nucleotides 1917–1937 of SEQ ID NO. 1; Troussard et al., 2003
[1] = test system: intimal hyperplasia after arterial injury; settings: adult rats, exogenously added CRT; Dai et al., 1997
endothelial cells = settings: added to the endothelial culture media; Pike et al., 1999

Molecule | IC50 (MMP-2/MMP-9) | also measured
O=C(O)[C@@H](Cc1ccccc1)NS(=O)(=O)c1ccc(-c2ccccc2)cc1 [MMP-2/MMP-9 inhibitor I, (2R)-2-[(4-Biphenylylsulfonyl)amino]-3-phenylpropionic Acid] | 240 to 350 nM | 
CC(C)C[C@@H]1NC(=O)[C@H]([C@@H](C)O)NC(=O)[C@H](Cc2ccccc2)NC(=O)CNC(=O)[C@H](Cc2c[nH]c3ccccc23)NC(=O)[C@H](Cc2cnc[nH]2)NC(=O)[C@H]([C@@H](C)O)NC(=O)[C@H]([C@@H](C)O)NC(=O)[C@@H](N)CSSC[C@@H](C(=O)O)NC1=O [MMP-2/MMP-9 inhibitor III] (H-CTTHWGFTLC-OH; disulfide 1-10) | 10000 nM | 
O=C(NO)[C@@H](Cc1ccccc1)NS(=O)(=O)c1ccc(-c2ccccc2)cc1 [MMP-2/MMP-9 inhibitor II] | 17 to 30 nM | 
siRNA: small interference RNA to CRT mRNA, sense 5′-GCUGAUCGUGCGGCCGGACAA dTT 3′, anti-sense 5′-UUGUCCGGCCGCACGAUCAGC dTT 3′ (sense GCUGAUCGUGCGGCCGGACAATT; antisense UUGUCCGGCCGCACGAUCAGCTT; chemistry not fully specified) |  | expression of CRT (CRT): significantly diminish the expression of CRT
B1 |  | intimal hyperplasia (restenosis) after arterial injury [1]: reducing intimal hyperplasia; endothelial cell proliferation (endothelial cells): selectively inhibits endothelial cell proliferation
